The subject of data set [1] is Oryza sativa. Description: Effect on Oryza sativa (rice) assessed as growth rate at 0.1 uM relative to control. Particulars: in vivo. Format: organism-based.
Data set [2] relates to Oryza sativa. Description: Effect on Oryza sativa (rice) assessed as growth rate at 10 uM relative to control. Format: organism-based. Conditions: in vivo.
For data set [3], the system named is Oryza sativa. Description: Safener indices, ratio of compound effect of Oryza sativa (rice) growth rate to relieving activity against bensulfuron-methyl induced injury to Oryza sativa growth rate at 1 uM.
Data set [4] relates to Oryza sativa. The experiment in a line: Relieving activity against bensulfuron-methyl induced injury to Oryza sativa (rice) assessed as growth rate at 1 uM (Rbv = 46 to 53%). Format: functional.
Data set [5] in a line: Hydrophobicity, log K of the compound. Format: physicochemical. Conditions: octanol/water.
The subject of data set [6] is Oryza sativa. Description: Effect on Oryza sativa (rice) assessed as growth rate at 1 uM relative to control. Format: organism-based. Conditions: in vivo.
The subject of data set [7] is Oryza sativa. The experiment in a line: Relieving activity against bensulfuron-methyl induced injury to Oryza sativa (rice) assessed as growth rate at 10 uM (Rbv = 46 to 53%). Format: functional.
For data set [8], the system named is Oryza sativa. Description: Safener indices, ratio of compound effect of Oryza sativa (rice) growth rate to relieving activity against bensulfuron-methyl induced injury to Oryza sativa growth rate at 0.1 uM.
Data set [9] concerns Oryza sativa. The experiment in a line: Safener indices, ratio of compound effect of Oryza sativa (rice) growth rate to relieving activity against bensulfuron-methyl induced injury to Oryza sativa growth rate at 10 uM.
For data set [10], the system named is Oryza sativa. The experiment in a line: Relieving activity against bensulfuron-methyl induced injury to Oryza sativa (rice) assessed as growth rate at 0.1 uM (Rbv = 46 to 53%). Format: functional.

Results on 20 compounds are retold here after ChEMBL document CHEMBL3045406, “Enantioselective Relieving Activity of α-Methylbenzylphenylureas toward Bensulfuron-methyl Injury to Rice (Oryza sativa)” (Biosci Biotechnol Biochem, 1999).

`CCc1cccc(NC(=O)N[C@@H](C)c2ccccc2)c1`: the Activity with Oryza sativa [1] was 100%; in the data set on Oryza sativa [2], 86%; in the data set with Oryza sativa [4], 72%; in the data set on Oryza sativa [6] it was 94%; in the data set on Oryza sativa [7], 82%; in the data set on Oryza sativa [10], 58%. The results for the Ratio in the data set on Oryza sativa [3], in the data set with Oryza sativa [8] and in the data set with Oryza sativa [9] were 48, 15 and 68, respectively. Besides, the “log K” value in data set [5] was 0.489.
Take `CCc1ccc(NC(=O)N[C@H](C)c2ccccc2)cc1`: the Activity with Oryza sativa [1] is listed as 95%; in the data set on Oryza sativa [2], 44%; with Oryza sativa [4], 43%; in the data set with Oryza sativa [6], 47%; with Oryza sativa [7] it was 47%; in the data set on Oryza sativa [10], 56%. For the same compound, the Ratio in the data set on Oryza sativa [3] is 24; in the data set on Oryza sativa [8], 15; in the data set on Oryza sativa [9], 32. In [5], the “log K” value is recorded as 0.487.
As to `CCc1ccc(NC(=O)N[C@@H](C)c2ccccc2)cc1`, the Activity is listed as 99% in the data set with Oryza sativa [1]; 91% in the data set on Oryza sativa [2]; 80% with Oryza sativa [4]; 95% with Oryza sativa [6]; 84% in the data set with Oryza sativa [7]; 74% in the data set on Oryza sativa [10]. For the same compound, the Ratio in the data set on Oryza sativa [3] worked out at 62; in the data set on Oryza sativa [8] it was 7; with Oryza sativa [9] it was 72. Moreover, the “log K” value in [5] came to 0.487.
Consider `CC(C)c1ccccc1NC(=O)N[C@H](C)c1ccccc1`, for which the Activity in the data set on Oryza sativa [1] was 103%; in the data set on Oryza sativa [2] it was 17%; in the data set with Oryza sativa [4], 48%; in the data set on Oryza sativa [6] it was 101%; in the data set with Oryza sativa [7], 30%; in the data set on Oryza sativa [10] it was 43%. The Ratio is 3 with Oryza sativa [3], -9 in the data set with Oryza sativa [8] and 24 in the data set with Oryza sativa [9]. The “log K” value in data set [5] is reported as 0.487.
For `CC(C)c1ccccc1NC(=O)N[C@@H](C)c1ccccc1`, the Activity in the data set on Oryza sativa [1] is on record as 99%; with Oryza sativa [2], 93%; in the data set with Oryza sativa [4] it was 48%; in the data set with Oryza sativa [6], 96%; in the data set with Oryza sativa [7], 52%; in the data set on Oryza sativa [10], 46%. Besides, the Ratio with Oryza sativa [3] was 7; in the data set on Oryza sativa [8], 1; with Oryza sativa [9], 15. For the same compound, the “log K” value in data set [5] was determined as 0.487.
As for `CC(C)c1cccc(NC(=O)N[C@H](C)c2ccccc2)c1`, the Activity with Oryza sativa [1] was 74%; in the data set on Oryza sativa [2] it was 44%; in the data set with Oryza sativa [4] it was 48%; with Oryza sativa [6], 61%; with Oryza sativa [7], 43%; in the data set with Oryza sativa [10], 45%. Also, the Ratio in the data set on Oryza sativa [3] was 27; with Oryza sativa [8] it was 16; with Oryza sativa [9] it was 29. Also, the “log K” value in data set [5] amounted to 0.58.
Turning to `CC(C)c1cccc(NC(=O)N[C@@H](C)c2ccccc2)c1`, the Activity is 95% with Oryza sativa [1]; 86% in the data set with Oryza sativa [2]; 55% with Oryza sativa [4]; 84% with Oryza sativa [6]; 68% in the data set with Oryza sativa [7]; 47% with Oryza sativa [10]. Moreover, the Ratio in the data set on Oryza sativa [3] is on record as 26; with Oryza sativa [8], 6; in the data set on Oryza sativa [9], 47. Moreover, the “log K” value in [5] stood at 0.58.
Take `CC(C)c1ccc(NC(=O)N[C@H](C)c2ccccc2)cc1`: the Activity came to 99% in the data set with Oryza sativa [1]; 49% in the data set with Oryza sativa [2]; 67% with Oryza sativa [4]; 79% with Oryza sativa [6]; 49% with Oryza sativa [7]; 49% in the data set with Oryza sativa [10]. The Ratio in the data set with Oryza sativa [3] is 47; with Oryza sativa [8], 7; in the data set on Oryza sativa [9], 34. Moreover, the “log K” value in data set [5] is given as 0.577.
`CC(C)c1ccc(NC(=O)N[C@@H](C)c2ccccc2)cc1`: the Activity in the data set on Oryza sativa [1] was found to be 98%; in the data set on Oryza sativa [2], 86%; in the data set on Oryza sativa [4], 83%; with Oryza sativa [6], 96%; with Oryza sativa [7], 79%; in the data set on Oryza sativa [10], 57%. For the same compound, the Ratio came out at 69 in the data set with Oryza sativa [3], 21 in the data set on Oryza sativa [8] and 66 with Oryza sativa [9]. Besides, the “log K” value in data set [5] was determined as 0.577.
For `CCCc1ccc(NC(=O)N[C@H](C)c2ccccc2)cc1`, the Activity in the data set on Oryza sativa [1] is 33%; in the data set with Oryza sativa [2], 35%; in the data set on Oryza sativa [4] it was 33%; with Oryza sativa [6] it was 31%; in the data set with Oryza sativa [7] it was 38%; in the data set with Oryza sativa [10] it was 32%. The Ratio with Oryza sativa [3] is recorded as 20; in the data set with Oryza sativa [8], 18; in the data set on Oryza sativa [9], 24. In addition, the “log K” value in data set [5] came to 0.602.
For the compound `CCCc1ccc(NC(=O)N[C@@H](C)c2ccccc2)cc1`, the Activity in the data set on Oryza sativa [1] is listed as 97%; with Oryza sativa [2] it was 73%; in the data set on Oryza sativa [4], 68%; with Oryza sativa [6], 76%; with Oryza sativa [7], 69%; in the data set on Oryza sativa [10] it was 66%. Moreover, the values for the Ratio with Oryza sativa [3], in the data set with Oryza sativa [8] and in the data set with Oryza sativa [9] were 47, 30 and 50, respectively. Moreover, the “log K” value in [5] was 0.602.
As for `C[C@@H](NC(=O)Nc1ccccc1C(C)(C)C)c1ccccc1`, the Activity amounted to 100% in the data set on Oryza sativa [1]; 17% with Oryza sativa [2]; 61% with Oryza sativa [4]; 95% with Oryza sativa [6]; 40% in the data set with Oryza sativa [7]; 58% in the data set with Oryza sativa [10]. The Ratio with Oryza sativa [3] was found to be 24; in the data set on Oryza sativa [8] it was 15; in the data set on Oryza sativa [9] it was 34. Further, the “log K” value in [5] is given as 0.535.
With `C[C@H](NC(=O)Nc1ccccc1C(C)(C)C)c1ccccc1`, the Activity in the data set with Oryza sativa [1] is recorded as 101%; in the data set with Oryza sativa [2], 100%; in the data set on Oryza sativa [4], 57%; in the data set on Oryza sativa [6], 99%; with Oryza sativa [7], 66%; in the data set on Oryza sativa [10], 52%. The Ratio in the data set with Oryza sativa [3] is reported as 14; with Oryza sativa [8] it was 3; with Oryza sativa [9], 31. For the same compound, in data set [5], the “log K” value is 0.535.
As to `C[C@@H](NC(=O)Nc1ccc(C(C)(C)C)cc1)c1ccccc1`, the Activity is on record as 100% with Oryza sativa [1]; 53% in the data set on Oryza sativa [2]; 64% in the data set with Oryza sativa [4]; 88% in the data set on Oryza sativa [6]; 57% with Oryza sativa [7]; 58% in the data set with Oryza sativa [10]. Also, the Ratio in the data set with Oryza sativa [3] amounted to 35; with Oryza sativa [8], 15; in the data set with Oryza sativa [9], 42. For the same compound, the “log K” value in [5] is 0.673.
`Cc1cccc(NC(=O)N[C@@H](C)c2ccccc2)c1`: the Activity came out at 99% in the data set with Oryza sativa [1]; 100% in the data set with Oryza sativa [2]; 79% in the data set with Oryza sativa [4]; 100% in the data set on Oryza sativa [6]; 89% in the data set with Oryza sativa [7]; 63% in the data set with Oryza sativa [10]. The values for the Ratio in the data set with Oryza sativa [3], in the data set with Oryza sativa [8] and in the data set with Oryza sativa [9] were 58, 27 and 79, respectively. Also, the “log K” value in [5] was 0.374.
As for `Cc1ccc(NC(=O)N[C@H](C)c2ccccc2)cc1`, the Activity in the data set with Oryza sativa [1] was 100%; in the data set on Oryza sativa [2], 64%; in the data set with Oryza sativa [4], 70%; in the data set on Oryza sativa [6] it was 98%; in the data set on Oryza sativa [7], 63%; in the data set on Oryza sativa [10] it was 54%. Moreover, the Ratio in the data set with Oryza sativa [3] was determined as 41; in the data set with Oryza sativa [8], 9; in the data set on Oryza sativa [9] it was 46. In addition, in [5], the “log K” value was 0.367.
Regarding `Cc1ccc(NC(=O)N[C@@H](C)c2ccccc2)cc1`, the Activity was found to be 100% in the data set with Oryza sativa [1]; 100% in the data set with Oryza sativa [2]; 86% in the data set on Oryza sativa [4]; 99% in the data set with Oryza sativa [6]; 91% in the data set on Oryza sativa [7]; 72% in the data set with Oryza sativa [10]. The Ratio in the data set with Oryza sativa [3] is given as 73; in the data set on Oryza sativa [8] it was 45; in the data set with Oryza sativa [9], 82. Further, the “log K” value in data set [5] came out at 0.367.
Turning to `CCc1ccccc1NC(=O)N[C@H](C)c1ccccc1`, the Activity in the data set with Oryza sativa [1] turned out to be 101%; in the data set on Oryza sativa [2], 92%; in the data set on Oryza sativa [4] it was 55%; in the data set with Oryza sativa [6], 100%; in the data set with Oryza sativa [7], 72%; in the data set with Oryza sativa [10] it was 52%. For the same compound, the Ratio in the data set on Oryza sativa [3] was 8; with Oryza sativa [8] it was 1; in the data set with Oryza sativa [9] it was 47. Also, the “log K” value in [5] came to 0.422.
For `CCc1ccccc1NC(=O)N[C@@H](C)c1ccccc1`, the Activity in the data set on Oryza sativa [1] amounted to 100%; with Oryza sativa [2], 95%; in the data set on Oryza sativa [4], 57%; with Oryza sativa [6], 100%; with Oryza sativa [7] it was 71%; with Oryza sativa [10], 51%. Besides, the results for the Ratio in the data set with Oryza sativa [3], with Oryza sativa [8] and in the data set with Oryza sativa [9] were 12, 1 and 44, respectively. Further, in data set [5], the “log K” value was determined as 0.422.
On to `CCc1cccc(NC(=O)N[C@H](C)c2ccccc2)c1`, for which the Activity came to 97% in the data set on Oryza sativa [1]; 36% in the data set on Oryza sativa [2]; 59% in the data set with Oryza sativa [4]; 71% with Oryza sativa [6]; 42% in the data set on Oryza sativa [7]; 54% in the data set with Oryza sativa [10]. Also, the Ratio with Oryza sativa [3] amounted to 36; in the data set with Oryza sativa [8] it was 8; in the data set with Oryza sativa [9], 29. The “log K” value in data set [5] amounted to 0.489.
